# Assay results reported in ChEMBL document CHEMBL1130810, “Potent, selective benzenesulfonamide agonists of the human beta 3 adrenergic receptor” (Bioorg Med Chem Lett, 1998).
# Columns and labels:
# [1] = biological target: T1, Beta-2 adrenergic receptor (Homo sapiens, UniProt P07550); assay: biochemical
# Target sequence in this assay (P07550 whole entry): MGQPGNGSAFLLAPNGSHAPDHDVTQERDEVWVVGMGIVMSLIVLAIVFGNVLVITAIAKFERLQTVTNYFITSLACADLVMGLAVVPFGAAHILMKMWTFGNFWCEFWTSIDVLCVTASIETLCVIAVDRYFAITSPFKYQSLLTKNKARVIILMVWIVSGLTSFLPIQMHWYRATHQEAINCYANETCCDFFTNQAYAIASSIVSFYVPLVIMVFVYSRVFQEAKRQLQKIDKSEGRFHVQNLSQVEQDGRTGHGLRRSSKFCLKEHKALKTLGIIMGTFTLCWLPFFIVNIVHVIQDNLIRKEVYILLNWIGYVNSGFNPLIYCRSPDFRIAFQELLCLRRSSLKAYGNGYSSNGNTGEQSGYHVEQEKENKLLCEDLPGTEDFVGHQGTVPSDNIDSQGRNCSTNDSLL
# Description: Binding affinity against cloned human beta-2 adrenergic receptor from CHO cells using [125I]iodocyanopindolol as the radioligand
# [2] = biological target: T2, Beta-1 adrenergic receptor (Homo sapiens, UniProt P08588); assay: Tested for binding affinity against cloned human beta-1 adrenergic receptor from CHO cells using [125I]iodocyanopindolol as the radioligand.; assay type: cell-based
# [3] = biological target: Beta-3 adrenergic receptor (Homo sapiens, UniProt P13945); assay: Agonist activity against cloned human beta-3 adrenergic receptor; assay type: functional
# [4] = biological target: T2, Beta-1 adrenergic receptor; assay: biochemical
# [5] = biological target: T2, Beta-1 adrenergic receptor; assay: (§1) Compound was tested for agonist activity against cloned human beta-1 adrenergic receptor; assay type: functional
# [6] = biological target: T2, Beta-1 adrenergic receptor; assay: Compound was tested for binding affinity against cloned human beta-1 adrenergic receptor from CHO cells using [125I]-iodocyanopindolol as radioligand; assay type: cell-based
# [7] = biological target: T1, Beta-2 adrenergic receptor; assay: Compound was tested for agonist activity against cloned human beta-2 adrenergic receptor; assay type: functional
# Target sequence in this assay (P07550 whole entry): as above
# [8] = biological target: T1, Beta-2 adrenergic receptor; assay: Agonist activity against cloned human beta-2 adrenergic receptor as percent activation of adenyl cyclase activity at a concentration of 1000 nM; assay type: functional
# Target sequence in this assay (P07550 whole entry, looked up): as the sequence (P07550 whole entry) above
# [9] = biological target: T2, Beta-1 adrenergic receptor; assay: as §1
# [10] = biological target: T1, Beta-2 adrenergic receptor; assay: Compound was tested for agonist activity against cloned human beta-2 adrenergic receptor at a concentration of 1000 nM; assay type: functional
# Target sequence in this assay (P07550 whole entry, looked up): as the sequence (P07550 whole entry) above
# T2 sequence (P08588 whole entry): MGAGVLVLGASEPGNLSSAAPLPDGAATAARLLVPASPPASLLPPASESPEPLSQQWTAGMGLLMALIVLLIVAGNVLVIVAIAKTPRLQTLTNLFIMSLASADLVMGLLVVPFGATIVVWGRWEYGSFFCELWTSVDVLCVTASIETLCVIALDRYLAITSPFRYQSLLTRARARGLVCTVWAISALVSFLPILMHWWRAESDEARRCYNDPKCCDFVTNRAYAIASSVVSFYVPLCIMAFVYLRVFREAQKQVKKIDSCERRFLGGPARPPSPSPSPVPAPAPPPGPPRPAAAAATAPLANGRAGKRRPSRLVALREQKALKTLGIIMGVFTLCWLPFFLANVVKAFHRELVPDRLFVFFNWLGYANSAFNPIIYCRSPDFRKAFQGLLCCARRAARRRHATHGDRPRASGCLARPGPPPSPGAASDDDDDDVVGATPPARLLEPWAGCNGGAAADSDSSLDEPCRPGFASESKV
# Chain of Beta-3 adrenergic receptor (P13945 whole entry): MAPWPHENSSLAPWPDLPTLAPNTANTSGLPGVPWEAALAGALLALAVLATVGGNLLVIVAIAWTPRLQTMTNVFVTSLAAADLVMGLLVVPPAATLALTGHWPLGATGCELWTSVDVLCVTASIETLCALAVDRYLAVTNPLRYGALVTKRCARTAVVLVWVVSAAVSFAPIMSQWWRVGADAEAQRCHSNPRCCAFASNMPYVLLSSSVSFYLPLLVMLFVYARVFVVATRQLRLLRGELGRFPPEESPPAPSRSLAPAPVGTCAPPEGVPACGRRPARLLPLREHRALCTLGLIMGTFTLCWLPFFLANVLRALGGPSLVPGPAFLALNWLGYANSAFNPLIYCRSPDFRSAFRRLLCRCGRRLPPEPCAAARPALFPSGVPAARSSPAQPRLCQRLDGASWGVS
Structure (SMILES),IC50 [1] [nM],EC50 [3] [nM],IC50 [4] [nM],further results
CC(=O)Nc1ccc(CCNC[C@H](O)COc2ccc(O)cc2)cc1,11,27,25,
O=S(=O)(Nc1ccc(CCNC[C@H](O)COc2ccc(O)cc2)cc1)c1ccc2ccccc2c1,630,5.4,,IC50 [2]: 9000 nM
O=S(=O)(Cc1ccccc1)Nc1ccc(CCNC[C@H](O)COc2ccc(O)cc2)cc1,21,39,60,
COc1ccc(C[C@H](C)NC[C@H](O)COc2ccc(O)cc2)cc1,,1000,,
COc1ccc(CC[C@H](C)NC[C@H](O)COc2ccc(O)cc2)cc1,20,200,,IC50 [6]: 10 nM
COc1ccc(CC[C@@H](C)NC[C@@H](O)COc2ccc(O)cc2)cc1,,6000,,EC50 [7]: 30 nM
O=S(=O)(Nc1ccc(CCNC[C@H](O)COc2ccc(O)cc2)cc1)c1ccccc1Cl,100,54,610,Activity [8]: 2%
C[C@@H](Cc1ccc(O)cc1)NC[C@H](O)COc1ccc(O)cc1,84,25,81,
Oc1ccc(CCNC[C@H](O)COc2ccc(O)cc2)cc1,150,30,900,
O=S(=O)(Nc1ccc(CCNC[C@H](O)COc2ccc(O)cc2)cc1)c1cnc2ccccc2c1,240,,,IC50 [2]: 500 nM; EC50 [9]: 300 nM
O=S(=O)(Nc1ccc(CCNC[C@H](O)COc2ccc(O)cc2)cc1)c1ccc(Cl)c(Cl)c1,3000,58,> 10000,
CC(C)S(=O)(=O)Nc1ccc(CCNC[C@H](O)COc2ccc(O)cc2)cc1,58,25,100,
O=S(=O)(CCc1ccccc1)Nc1ccc(CCNC[C@H](O)COc2ccc(O)cc2)cc1,120,5.9,110,
O=C(Nc1ccc(CCNC[C@H](O)COc2ccc(O)cc2)cc1)c1ccccc1,230,62,6.7,
COc1ccc(CCCNC[C@H](O)COc2ccc(O)cc2)cc1,63,600,,IC50 [5]: 15 nM
O=S(=O)(CCCc1ccccc1)Nc1ccc(CCNC[C@H](O)COc2ccc(O)cc2)cc1,130,92,1000,

# More lines, main results first:
IC50 [1] [nM],EC50 [3] [nM],IC50 [4] [nM],Structure (SMILES),further results
190,4.3,,COc1ccc(S(=O)(=O)Nc2ccc(CCNC[C@H](O)COc3ccc(O)cc3)cc2)cc1,IC50 [2]: 140 nM
220,110,830,CS(=O)(=O)Nc1ccc(CCNC[C@H](O)COc2ccc(O)cc2)cc1,
370,15,,O=S(=O)(Nc1ccc(CCNC[C@H](O)COc2ccc(O)cc2)cc1)c1cccc(Cl)c1,IC50 [2]: 1000 nM
3000,1500,2000,O=S(=O)(Nc1ccc(CCNC[C@H](O)COc2ccc(O)cc2)cc1)C1CCCCC1,EC50 [5]: 1200 nM
190,6.3,180,O=S(=O)(Nc1ccc(CCNC[C@H](O)COc2ccc(O)cc2)cc1)c1ccccc1,
10,12,15,C[C@@H](CCc1ccc(O)cc1)NC[C@H](O)COc1ccc(O)cc1,
250,4000,1000,CCCCCS(=O)(=O)Nc1ccc(CCNC[C@H](O)COc2ccc(O)cc2)cc1,
180,0.77,510,O=S(=O)(Nc1ccc(CCNC[C@H](O)COc2ccc(O)cc2)cc1)c1ccc(Br)cc1,EC50 [5]: 340 nM
170,2.6,,Cc1ccc(S(=O)(=O)Nc2ccc(CCNC[C@H](O)COc3ccc(O)cc3)cc2)cc1,IC50 [2]: 150 nM
,600,,COc1ccc(CC[C@@H](C)NC[C@H](O)COc2ccc(O)cc2)cc1,EC50 [7]: 5 nM
500,440,1000,Nc1ccc(CCNC[C@H](O)COc2ccc(O)cc2)cc1,
,2000,,COc1ccc(CC[C@H](C)NC[C@@H](O)COc2ccc(O)cc2)cc1,
280,4.8,,O=S(=O)(Nc1ccc(CCNC[C@H](O)COc2ccc(O)cc2)cc1)c1ccc(Cl)cc1,EC50 [5]: 450 nM; IC50 [2]: 1000 nM
500,60,1000,CCCS(=O)(=O)Nc1ccc(CCNC[C@H](O)COc2ccc(O)cc2)cc1,Max stimulation [10]: 4%
